Experimental data from publication PMC6904214, “A novel lineage of candidate pheromone receptors for sex communication in moths” (eLife, 2019).

Biological target: T1, SlitOR5/SlitOrco (Spodoptera littoralis, UniProt A0A5J6NJF6)
T1 construct: full-length open reading frames (SlitOr5 1191 bp) in pCS2+, cRNAs co-injected in Xenopus oocytes; heteromer with co-receptor Orco; with Odorant receptor coreceptor
T1 sequence (A0A5J6NJF6 1-397): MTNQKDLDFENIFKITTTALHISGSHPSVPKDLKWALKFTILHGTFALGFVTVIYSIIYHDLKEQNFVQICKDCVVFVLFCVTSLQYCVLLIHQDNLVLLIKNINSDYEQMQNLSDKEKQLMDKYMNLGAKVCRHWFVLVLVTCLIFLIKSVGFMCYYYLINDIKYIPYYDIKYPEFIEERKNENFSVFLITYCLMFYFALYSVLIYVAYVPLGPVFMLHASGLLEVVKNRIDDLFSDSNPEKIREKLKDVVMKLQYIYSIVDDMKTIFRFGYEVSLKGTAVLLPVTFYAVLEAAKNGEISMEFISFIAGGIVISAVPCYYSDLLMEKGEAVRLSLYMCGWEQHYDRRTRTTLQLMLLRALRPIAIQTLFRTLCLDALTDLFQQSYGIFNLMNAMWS
T1 sequence (B6C755 1-473 partner): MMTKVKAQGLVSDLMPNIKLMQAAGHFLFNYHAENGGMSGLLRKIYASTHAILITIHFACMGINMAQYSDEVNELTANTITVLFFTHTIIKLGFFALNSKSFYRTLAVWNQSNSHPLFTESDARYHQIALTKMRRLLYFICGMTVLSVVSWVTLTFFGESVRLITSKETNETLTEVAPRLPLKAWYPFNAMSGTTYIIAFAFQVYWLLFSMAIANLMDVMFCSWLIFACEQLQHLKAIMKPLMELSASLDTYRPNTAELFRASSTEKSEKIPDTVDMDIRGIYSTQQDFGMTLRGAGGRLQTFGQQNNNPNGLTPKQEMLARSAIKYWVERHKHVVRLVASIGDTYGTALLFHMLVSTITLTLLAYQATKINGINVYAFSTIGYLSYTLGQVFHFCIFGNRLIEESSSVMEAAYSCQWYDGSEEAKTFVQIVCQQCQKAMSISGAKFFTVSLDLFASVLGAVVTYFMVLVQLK
Assay: two-electrode voltage clamp, inward current in Xenopus oocytes
Format: cell-based

EC50: 171 nM
SMILES: CC/C=C/C=C\CCCCCCCCOC(C)=O [(Z,E)-9,11-14:OAc, (Z,E)-9,11-tetradecadienyl acetate]
